Measurements published in article PMC7539012, “Hyperphosphorylated tau aggregation and cytotoxicity modulators screen identified prescription drugs linked to Alzheimer's disease and cognitive functions” (Scientific Reports, 2020).
Where a name gives a salt, the structure may show the parent alone.
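Throughout, for ThS net change: 30 µM compound with 6 µM p-tau over 16 h.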

These compounds were tested on T1, 1N4R p-tau (assay: p-tau aggregation modulator screen of 1280-compound library (ThS fluorescence net change over 16 h)). Conditions: not given.
T1 construct: made in house; host or cells: E. coli (PIMAX system)
Format: biochemical
Parameters: key to PTAI>2SD: *: PTAI>2SD
With O=C(Oc1cccc2cccnc12)c1ccccc1 [Benzoxiquine] the ThS net change was 287.
Brc1c(NC2=NCCN2)ccc2nccnc12.O=C(O)C(O)C(O)C(=O)O [Brimondine L-Tartrate] showed a ThS net change of 418.
CC(C)C[C@H]1C(=O)N2CCC[C@H]2[C@]2(O)O[C@](NC(=O)[C@@H]3C=C4c5cccc6[nH]c(Br)c(c56)C[C@H]4N(C)C3)(C(C)C)C(=O)N12.CS(=O)(=O)O [Bromocryptine mesylate] gave a ThS net change of 296.
In the case of Clc1ccc(CCC(Cn2ccnc2)Sc2c(Cl)cccc2Cl)cc1 (centres unmarked) [Butoconazole nitrate], the ThS net change is reported as 237.

Same assay, conditions: 1280-compound library screen; ThS fluorescence net change over 16 h
With CCOC(=O)c1ccc(N)cc1 [Benzocaine] the ThS net change was 379.
For CCCCNc1ccc(C(=O)OCCOCCOCCOCCOCCOCCOCCOCCOCCOC)cc1 [Benzonatate], the ThS net change was 398.
With NS(=O)(=O)c1cc2c(cc1Cl)N=C(CSCc1ccccc1)NS2(=O)=O [Benzthiazide] the ThS net change was 399.
CC1(C)S[C@@H]2[C@H](NC(=O)Cc3ccccc3)C(=O)N2[C@H]1C(=O)O [Benzylpenicillin sodium] showed a ThS net change of 398.
For CNCCc1ccccn1.CS(=O)(=O)O.CS(=O)(=O)O [Betahistine mesylate], the ThS net change was 378.
C[C@H]1C[C@H]2[C@@H]3CCC4=CC(=O)C=C[C@]4(C)[C@@]3(F)[C@@H](O)C[C@]2(C)[C@@]1(O)C(=O)CO [Betamethasone] showed a ThS net change of 395.
Compound CC(C)(Oc1ccc(CCNC(=O)c2ccc(Cl)cc2)cc1)C(=O)O [Bezafibrate] has a ThS net change of 389.
CC(O)(CS(=O)(=O)c1ccc(F)cc1)C(=O)Nc1ccc(C#N)c(C(F)(F)F)c1 (centres unmarked) [Bicalutamide] gave a ThS net change of 388.
Compound OC(CCN1CCCCC1)(c1ccccc1)C1CC2C=CC1C2 (centres unmarked) [Biperiden hydrochloride] has a ThS net change of 380.
With CC(=O)Oc1ccc(C(c2ccc(OC(C)=O)cc2)c2ccccn2)cc1 [Bisacodyl] the ThS net change was 398.
With CC(C)NCC(O)COc1ccc(COCCOC(C)C)cc1 (centres unmarked) [Bisoprolol fumarate] the ThS net change was 409.
For CN(C)CCC(c1ccc(Br)cc1)c1ccccn1 (centres unmarked) [Brompheniramine maleate], the ThS net change was 379.
Compound CCCC1O[C@@H]2C[C@H]3[C@@H]4CCC5=CC(=O)C=C[C@]5(C)[C@H]4[C@@H](O)C[C@]3(C)[C@]2(C(=O)CO)O1 (some centres unmarked) [Budesonide] has a ThS net change of 389.
Work on CCCCNc1cc(C(=O)O)cc(S(N)(=O)=O)c1Oc1ccccc1 [Bumetanide] yielded a ThS net change of 408.
CCCCOC(=O)c1ccc(N)cc1 [Butamben] was tested, and the ThS net change was 387.
Compound CCCC[N+]1(C)[C@@H]2C[C@@H](OC(=O)[C@H](CO)c3ccccc3)C[C@H]1[C@@H]1O[C@@H]12.[Br-] (some centres unmarked) [Butylscopolammonium (n-) bromide] has a ThS net change of 388.
C=C1/C(=C\C=C2/CCC[C@]3(C)[C@@H]([C@H](C)/C=C/[C@@H](O)C4CC4)CC[C@@H]23)C[C@@H](O)C[C@@H]1O [Calcipotriene] showed a ThS net change of 407.
With COC(=O)N/N=C/c1c[n+]([O-])c2ccccc2[n+]1[O-] [Carbadox] the ThS net change was 380.
CCN(CC)CCOCCOC(=O)C1(c2ccccc2)CCCC1 [Carbetapentane citrate] showed a ThS net change of 402.
With C[C@@](Cc1ccc(O)c(O)c1)(NN)C(=O)O [Carbidopa] the ThS net change was 395.
For CCOC(=O)n1ccn(C)c1=S [Carbimazole], the ThS net change was 380.
For COc1ccccc1OCCNCC(O)COc1cccc2[nH]c3ccccc3c12 (centres unmarked) [Carvedilol], the ThS net change was 394.
Cc1nnc(SCC2=C(C(=O)O)N3C(=O)[C@@H](NC(=O)Cn4cnnn4)[C@H]3SC2)s1 [Cefazolin sodium salt] gave a ThS net change of 381.
C=CC1=C(C(=O)O)N2C(=O)[C@@H](NC(=O)/C(=N\OCC(=O)O)c3csc(N)n3)[C@H]2SC1 [Cefixime] gave a ThS net change of 408.

Same assay, conditions: 1280-compound library screen; […]
O=C(O)CCCC[C@@H]1SC[C@@H]2NC(=O)N[C@@H]21 [Biotin] was tested, and the ThS net change was 380.
Compound CCCCOC(=O)c1ccc(O)cc1 [Butylparaben] has a ThS net change of 396.
Work on N[C@@H](C(=O)N[C@@H]1C(=O)N2C(C(=O)O)=C(Cl)CS[C@H]12)c1ccccc1.O [Cefaclor hydrate] yielded a ThS net change of 392.

Same assay, conditions: flag: p-tau aggregation inhibitor, ThS net change more than 2 SD from mean
With CCCCOc1ccc(CC(=O)NO)cc1 [Bufexamac] the “PTAI>2SD” value was “*”.

Same assay, conditions: library screen, ThS fluorescence net change over 16 h with p-tau
CN(C)CCCOc1nn(Cc2ccccc2)c2ccccc12 [Benzydamine hydrochloride] was tested, and the ThS net change was 310.
Compound CCCCOc1ccc(CC(=O)NO)cc1 [Bufexamac] has a ThS net change of 140.
Compound CC(NC(C)(C)C)C(=O)c1cccc(Cl)c1 (centres unmarked) [Bupropion hydrochloride] has a ThS net change of 278.
For CS(=O)(=O)OCCCCOS(C)(=O)=O [Busulfan], the ThS net change was 324.

Same assay, conditions: p-tau aggregation modulator screen of 1280-compound library; ThS fluorescence net change
C[N+](C)(CCOc1ccccc1)Cc1ccccc1.O=C([O-])c1cc2ccccc2cc1O [Bephenium hydroxynaphthoate] showed a ThS net change of 370.
Cl.N[C@@H]1CCCCN(c2c(F)cc3c(=O)c(C(=O)O)cn(C4CC4)c3c2Cl)C1 [Besifloxacin hydrochloride] showed a ThS net change of 360.
In the case of CC(C)NCC(O)COc1ccc(CCOCC2CC2)cc1 (centres unmarked) [Betaxolol hydrochloride], the ThS net change is reported as 373.
For NCCc1cc[nH]n1 [Betazole hydrochloride], the ThS net change was 333.
CCN[C@H]1CN(CCCOC)S(=O)(=O)c2sc(S(N)(=O)=O)cc21 [Brinzolamide] gave a ThS net change of 348.
Work on CCN(CC)CCNC(=O)c1cc(Br)c(N)cc1OC [Bromopride] yielded a ThS net change of 373.
With O=C(CCCN1CCC(O)(c2ccc(Br)cc2)CC1)c1ccc(F)cc1 [Bromperidol] the ThS net change was 337.
Compound COc1cc(OC)c(C(=O)CCCN2CCCC2)c(OC)c1.Cl [Buflomedil hydrochloride] has a ThS net change of 363.
Work on CCCCN1CCCCC1C(=O)Nc1c(C)cccc1C (centres unmarked) [Bupivacaine hydrochloride] yielded a ThS net change of 364.
Compound CCCCN(CCCC)CCCOC(=O)c1ccc(N)cc1 [Butacaine] has a ThS net change of 367.
Work on CCN(CC)CCNC(C(=O)OCCC(C)C)c1ccccc1.Cl.Cl (centres unmarked) [Camylofine chlorhydrate] yielded a ThS net change of 342.
C[C@H](CS)C(=O)N1CCC[C@H]1C(=O)O [Captopril] gave a ThS net change of 370.
NC(=O)N1c2ccccc2C=Cc2ccccc21 [Carbamazepine] gave a ThS net change of 370.
For CC(C)(C)NCC(O)COc1cccc2c1CCC(=O)N2 (centres unmarked) [Carteolol hydrochloride], the ThS net change was 377.

Same assay, conditions: p-tau aggregation modulator screen of 1280-compound library; […]
Work on CC(C)(C)CC(C)(C)c1ccc(OCCOCC[N+](C)(C)Cc2ccccc2)cc1 [Benzethonium chloride] yielded a ThS net change of 365.
With C=CCC1(CC(C)C)C(=O)NC(=O)NC1=O [Butalbital] the ThS net change was 374.
Compound CC[C@@]1(O)C(=O)OCc2c1cc1n(c2=O)Cc2cc3ccccc3nc2-1 [Camptothecine (S,+)] has a ThS net change of 350.
Work on C[C@]12CCC(=O)C=C1C=C[C@@H]1[C@@H]2CC[C@@]2(C)[C@H]1CC[C@@]2(O)CCC(=O)[O-].[K+] [Canrenoic acid potassium salt] yielded a ThS net change of 329.
Compound CCCC(C)(COC(N)=O)COC(=O)NC(C)C (centres unmarked) [Carisoprodol] has a ThS net change of 370.
Work on CCC1=C[C@@H]2C[N@]3CCc4c([nH]c5ccccc45)[C@@](C(=O)OC)(C2)[C@@H]13 [Catharanthine] yielded a ThS net change of 374.

Same assay, conditions: p-tau aggregation modulator screen of the compound library, ThS fluorescence net change
Compound CN1[C@@H]2CC[C@H]1C[C@@H](OC(c1ccccc1)c1ccccc1)C2 [Benztropine mesylate] has a ThS net change of 419.
Work on CC(C)COCC(CN(Cc1ccccc1)c1ccccc1)N1CCCC1 (centres unmarked) [Bepridil hydrochloride] yielded a ThS net change of 418.
CC(C[N+](C)(C)C)OC(N)=O (centres unmarked) [Bethanechol chloride] showed a ThS net change of 418.
In the case of c1ccc(-c2ccc(C(c3ccccc3)n3ccnc3)cc2)cc1 (centres unmarked) [Bifonazole], the ThS net change is reported as 432.
COc1ccccc1Oc1c(NS(=O)(=O)c2ccc(C(C)(C)C)cc2)nc(-c2ncccn2)nc1OCCO [Bosentan] showed a ThS net change of 453.
CC[N+](C)(C)Cc1ccccc1Br [Bretylium tosylate] showed a ThS net change of 431.
CN(Cc1cc(Br)cc(Br)c1N)C1CCCCC1 [Bromhexine hydrochloride] gave a ThS net change of 545.
Compound O=C1CC2(CCCC2)CC(=O)N1CCCCN1CCN(c2ncccn2)CC1 [Buspirone hydrochloride] has a ThS net change of 445.
CN(Cc1ccc(C(C)(C)C)cc1)Cc1cccc2ccccc12 [Butenafine Hydrochloride] gave a ThS net change of 436.
With Cn1c(=O)c2c(ncn2C)n(C)c1=O [Caffeine] the ThS net change was 428.
In the case of CCOc1nc2cccc(C(=O)O)c2n1Cc1ccc(-c2ccccc2-c2nnn[nH]2)cc1 [Candesartan], the ThS net change is reported as 415.
Compound C[C@]12CCC(=O)C=C1C=C[C@@H]1[C@@H]2CC[C@@]2(C)[C@H]1CC[C@@]21CCC(=O)O1 [Canrenone] has a ThS net change of 462.
Work on C[N+](C)(C)CCOC(N)=O [Carbachol] yielded a ThS net change of 440.
In the case of CC1(C)[C@@H](OC(=O)CCC(=O)O)CC[C@]2(C)[C@H]3C(=O)C=C4[C@@H]5C[C@@](C)(C(=O)O)CC[C@]5(C)CC[C@@]4(C)[C@]3(C)CC[C@@H]12 [Carbenoxolone disodium salt], the ThS net change is reported as 460.
In the case of CN(C)CCOC(c1ccc(Cl)cc1)c1ccccn1.O=C(O)/C=C\C(=O)O (centres unmarked) [Carbinoxamine maleate salt], the ThS net change is reported as 427.
For CCCCCCNC(=O)n1cc(F)c(=O)[nH]c1=O [Carmofur, 1-hexylcarbamoyl-5-fluorouracil], the ThS net change was 1524.
With CC(C(=O)O)c1ccc2c(c1)[nH]c1ccc(Cl)cc12 (centres unmarked) [Carprofen] the ThS net change was 478.
CC1=C(C(=O)O)N2C(=O)[C@@H](NC(=O)[C@H](N)c3ccc(O)cc3)[C@H]2SC1 [Cefadroxil] was tested, and the ThS net change was 413.
Compound C=CC1=C(C(=O)O)N2C(=O)[C@@H](NC(=O)/C(=N\O)c3csc(N)n3)[C@H]2SC1 [Cefdinir] has a ThS net change of 454.
In the case of CO/N=C(\C(=O)N[C@@H]1C(=O)N2C(C(=O)O)=C(C[N+]3(C)CCCC3)CS[C@H]12)c1csc(N)n1 [Cefepime hydrochloride], the ThS net change is reported as 418.
CO[C@@]1(NC(=O)CSCC#N)C(=O)N2C(C(=O)O)=C(CSc3nnnn3C)CS[C@@H]21 [Cefmetazole sodium salt] was tested, and the ThS net change was 468.
